Measured values taken from ChEMBL document CHEMBL1123660 (J Med Chem, 1987).

Legend:
[1] = species: Oryctolagus cuniculus; assay: PAF antagonism was determined by rabbit platelet inhibition and neurophil aggregation and degranulation at 0.1 to 1 uM concentration.; assay type: functional
[2] = tested on: Platelet-activating factor receptor (Oryctolagus cuniculus); assay: Percent inhibition of [3H]PAF to platelet-activating factor (PAF) receptor from rabbit platelet membranes at; conditions: concentration not given here

inhibition [2] | SMILES | Ki [1]
– | C=CCC1=C[C@@]2(OC)C(=CC1=O)O[C@H](c1ccc(OC)c(OC)c1)[C@H]2C (stereo in doubt) [KADSURENONE] | 58 nM
61% | CCCC1=C[C@]2(OC)C(=CC1=O)O[C@H](c1ccc(OC)c(OC)c1)[C@H]2C | –
